This is an account of results in US20150125915A1, “Method for Producing Lactic Acid” (Kao Corporation, priority 2012, published 2015).

Assay [1] concerns Rhizopus oryzae JCM14625 strain (=NBRC 5384). Nature of the assay: Evaluation of ability to produce lactic acid-1 (production rate of lactic acid). Format: cell-based. The following applies: 0.5% (w/v) surfactant in PDB medium at spore germination; rate in the absence of the surfactant = 100. Here is the method: Specifically, the mycelia of a fungus of the genus Rhizopus were prepared by the method of Production Example 2 using the surfactant and then grown by the method of Production Example 3. 6.0 g of the obtained wet fungus bodies of the genus Rhizopus was inoculated to 40 mL of an inorganic culture medium for lactic acid production evaluation (composition: 8.0% glucose, 0.1% ammonium sulfate, 0.06% potassium dihydrogen phosphate, 0.025% magnesium sulfate heptahydrate, 0.009% zinc sulfate heptahydrate, and 5.0% calcium carbonate; all the concentrations mean % (w/v)) applied to a 200-mL Erlenmeyer flask, and then cultured at 35° C. with stirring at 170 rpm. The supernatant of the culture medium was recovered every 2 hours from 30 minutes after the fungus body inoculation. Glucose and lactic acid were quantified by the procedures described later in Reference Example 1. A relative value of the production rate of lactic acid was determined on the basis of the calculation method described in Reference Example 2.
Glucose and lactic acid were quantified using an HPLC apparatus LaChrom Elite (manufactured by Hitachi High-Technologies Corp.). The analytical column used was a carbohydrate/organic acid analysis column HPX-87H (7.8 mm I.D.×30 cm, manufactured by Bio-Rad Laboratories, Inc.) connected with a guard column Cation H (4.6 mm I.D.×3.0 cm, manufactured by Bio-Rad Laboratories, Inc.). Elution was performed under conditions involving 10 mM sulfuric acid as an eluent, a flow rate of 0.85 mL/min, and a column temperature of 50° C. Glucose and lactic acid were detected using a differential refractive index detector (RI detector) and a UV detector (detection wavelength: 210 nm), respectively. The standard samples used were glucose (distributor code: 049-31165, manufactured by Wako Pure Chemical Industries Ltd.), and lithium L-lactate (product number: L2250, manufactured by Sigma-Aldrich Inc.). Quantification was performed on the basis of concentration calibration curves prepared using these standard samples.
The supernatant sample of each culture medium to be subjected to HPLC analysis was appropriately diluted in advance with 37 mM sulfuric acid and then applied to DISMIC-13cp (0.20 μm cellulose acetate membrane, manufactured by […] Group) or MULTI SCREEN MNHV45 (0.45 μm Durapore membrane, manufactured by EMD Millipore) to remove insoluble matter.
(§1) The concentration of lactic acid (unit: g of lactic acid/L of medium) in the supernatant sample of each culture medium was measured according to Reference Example 1 and divided by a time (unit: hr) required for change in lactic acid concentration to calculate the production rate of lactic acid per unit time (unit: g of lactic acid/L/hr). In addition, a relative value to the production rate of lactic acid under control conditions in each Production Example was determined.

Assay [2] shares this test system. Nature of the assay: Evaluation of ability to produce lactic acid-3 (surfactant concentration in the spore germination medium). The format is cell-based. The following applies: no surfactant = 100. Here is the method: (1) 200 mL of a PDB medium non-supplemented or supplemented with 0.01, 0.05, 0.25, 0.50, 1.0, 1.5, or 2.5% (w/v) (final concentration) of sorbitan monolaurate (Rheodol(R) SP-L10, manufactured by Kao Corp.) was applied to a 500-mL baffled Erlenmeyer flask (manufactured by Asahi Glass Co., Ltd.). The Rhizopus oryzae spore suspension prepared in Production Example 1 was inoculated thereto at a dose of 1×10^3 spores/mL of the medium and then cultured at 27° C. for 3 days with stirring at 110 rpm.
(2) The cultures were filtered through a filter support and a nylon net filter of 180 μm mesh size (manufactured by EMD Millipore) sterilized in advance to recover fungus bodies onto the filter. From 2.0 to 3.0 g of the recovered fungus bodies was inoculated to 100 mL of an inorganic culture medium (composition: 10% glucose, 0.1% ammonium sulfate, 0.06% potassium dihydrogen phosphate, 0.025% magnesium sulfate heptahydrate, 0.009% zinc sulfate heptahydrate, and 5.0% calcium carbonate; all the concentrations mean % (w/v)) applied to a 500-mL Erlenmeyer flask, and then cultured at 27° C. for approximately 40 hours with stirring at 220 rpm.
(3) Control conditions in the absence of the surfactant involved culturing spores with stirring by the same procedures as in (1) using a PDB medium non-supplemented with the surfactant and then inoculating from 4 to 8 mL of the PDB seed culture medium to 100 mL of the inorganic culture medium by the same procedures as in (2), followed by culture.
(4) Subsequently, the cultures thus obtained by culture in the inorganic culture medium were filtered through a filter support and a nylon net filter of 180 μm mesh size (manufactured by EMD Millipore) sterilized in advance to recover fungus bodies onto the filter. On this filter, the fungus bodies were further washed with from 50 to 200 mL of saline to obtain fungus bodies.
30 g of the prepared wet fungus bodies of the genus Rhizopus was inoculated to 100 mL of an inorganic culture medium for lactic acid production evaluation (composition: 12.5% glucose, 0.1% ammonium sulfate, 0.06% potassium dihydrogen phosphate, 0.025% magnesium sulfate heptahydrate, 0.009% zinc sulfate heptahydrate, and 6.25% calcium carbonate; all the concentrations mean % (w/v)) and then cultured at 33.5° C. with stirring at 170 rpm. The fungus body-free supernatant of the culture medium was recovered every 1 hour from 30 minutes after the fungus body inoculation. Glucose and lactic acid were quantified by the procedures described later in Reference Example 1. A relative value of the production rate of lactic acid was determined on the basis of the calculation method described in Reference Example 2.
as §1

In the case of Sorbitan monolaurate, the “Production rate of lactic acid (relative value)” value in assay [1] worked out at 152 relative value; in assay [2] (0.01% w/v in germination medium), 119 relative value; in assay [2] (0.05% w/v in germination medium), 133 relative value; in assay [2] (0.25% w/v in germination medium), 116 relative value; in assay [2] (0.50% w/v in germination medium) it was 138 relative value; in assay [2] (1.00% w/v in germination medium), 140 relative value. Further, the “Production rate of lactic acid (relative value)” value turned out to be 117 relative value in assay [2] (1.50% w/v in germination medium) and 98 relative value in assay [2] (2.50% w/v in germination medium).
